This is an account of results in ChEMBL document CHEMBL1201862, “PubChem BioAssay data set” (2004).

The structures appear in SMILES notation.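 Step 1: Grow cells in 96-well plates. Step 2: Expose to compound for 48 hours at 5 concentrations. Step 3: Interpolate endpoints linearly; if unreached, use highest concentration. GI50 = concentration required for 50% inhibition of growth.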 The source made the active and inactive calls. Rule as the data show it: active = GI50 up to about 1.1 µM and inactive = higher.

Some test systems named below: SW-620; SK-MEL-5; UACC-62; SN12C; HOP-92; NCI-H23; HCT-116; NCI-H522; 786-0; EKVX; HL-60; SK-MEL-2; MOLT-4; CAKI-1; OVCAR-4; HCC 2998; NCI/ADR-RES; MCF7; Hs-578T.
What all share (assay): NCI-60 cell line screen, 48 h

For the compound `Cc1[nH]c2c(C)cccc2c1C1Cc2ccccc2N1` (centres undefined), the GI50 in the experiment with SW-620 is 26.4 µM (inactive); with SK-MEL-5, 18.5 µM (inactive); in the experiment with UACC-62, 18.6 µM (inactive); with SN12C it was 21.2 µM (inactive); in the experiment on HOP-92 it was 0.0214 µM (active); in the experiment on NCI-H23 it was 20.3 µM (inactive). In addition, the GI50 is 17 µM (inactive) in the experiment with HCT-116; 19.5 µM (inactive) in the experiment with NCI-H522; 22.3 µM (inactive) in the experiment with 786-0; 15.5 µM (inactive) in the experiment with EKVX; 19.8 µM (inactive) in the experiment on HL-60; 28.8 µM (inactive) in the experiment on SK-MEL-2. Further, the GI50 with MOLT-4 was 20.5 µM (inactive).
Turning to `O=C(O)C1CCCCN1C(=O)Cc1c[nH]c2ccccc12` (centres undefined), the GI50 with CAKI-1, in the experiment with SW-620, with UACC-62, in the experiment with SN12C, in the experiment on HOP-92 and in the experiment with OVCAR-4 was > 100 µM (inactive) each time. The GI50 with NCI-H23, in the experiment with HCT-116, in the experiment with NCI-H522, in the experiment on HCC 2998, with 786-0 and with EKVX was > 100 µM (inactive) throughout. The GI50 in the experiment with HL-60, in the experiment on NCI/ADR-RES, in the experiment with MCF7, with SK-MEL-2 and in the experiment on MOLT-4 was > 100 µM (inactive) in each case.
Take `CNC1c2ccccc2C(=O)c2cc3c(cc21)OCCOCCOCCOCCO3` (centres undefined): the GI50 with SW-620 is 81.3 µM (inactive); in the experiment with SK-MEL-5, > 100 µM (inactive); with SN12C it was 99.1 µM (inactive); in the experiment on OVCAR-4, > 100 µM (inactive); in the experiment with Hs-578T, > 100 µM (inactive); in the experiment with HCT-116, > 100 µM (inactive). For the same compound, the GI50 in the experiment with NCI-H522 was 34.1 µM (inactive); in the experiment on HCC 2998, > 100 µM (inactive); in the experiment with 786-0, > 100 µM (inactive); with EKVX, > 100 µM (inactive); with HL-60 it was 27.4 µM (inactive); in the experiment with NCI/ADR-RES it was > 100 µM (inactive). Also, the GI50 is 55.5 µM (inactive) in the experiment with MCF7 and 28.1 µM (inactive) with MOLT-4.
Turning to `CC1=C2C3=C(C)C(=O)C(C)(C)CC[C@@]3(C)[C@]2(C)CCC(C)(C)C1=O`, the GI50 in the experiment with CAKI-1, in the experiment with SW-620, in the experiment on SK-MEL-5, in the experiment with UACC-62, with SN12C and in the experiment with OVCAR-4 was > 100 µM (inactive) each time. Further, the GI50 with Hs-578T, with NCI-H23, in the experiment on HCT-116, with NCI-H522, in the experiment with 786-0 and in the experiment with EKVX was > 100 µM (inactive) throughout. Further, the GI50 with HL-60, with NCI/ADR-RES, with MCF7 and in the experiment with MOLT-4 was > 100 µM (inactive) in each case.
Consider `COc1cccc(-n2c(N)c(-c3nc4cc(C(F)(F)F)ccc4s3)c3ccc([N+](=O)[O-])cc3c2=O)c1`, for which the GI50 with CAKI-1, with SK-MEL-5, with UACC-62, with SN12C, in the experiment on HOP-92 and in the experiment with OVCAR-4 was > 100 µM (inactive) throughout. Further, the GI50 with NCI-H23, in the experiment on HCT-116, with NCI-H522, in the experiment with HCC 2998, with 786-0 and in the experiment on EKVX was > 100 µM (inactive) each time. Also, the GI50 in the experiment on NCI/ADR-RES, with MCF7, in the experiment with SK-MEL-2 and with MOLT-4 was > 100 µM (inactive) throughout.
In the case of `C=CCc1cccc(C(=O)/C=C(O)/C=C/c2ccccc2Cl)c1O`, the GI50 in the experiment with CAKI-1 was 42.6 µM (inactive); with SW-620, 8.43 µM (inactive); in the experiment on SK-MEL-5, 7.16 µM (inactive); in the experiment with UACC-62, 13.4 µM (inactive); in the experiment on SN12C, 25.6 µM (inactive); in the experiment on HOP-92, 25.6 µM (inactive). Further, the GI50 was 6.12 µM (inactive) with NCI-H23; 7.29 µM (inactive) in the experiment with HCT-116; 11.2 µM (inactive) with NCI-H522; 33.9 µM (inactive) in the experiment on HCC 2998; 10.4 µM (inactive) in the experiment with 786-0; 29.5 µM (inactive) in the experiment on EKVX. Further, the GI50 in the experiment on NCI/ADR-RES is 11.5 µM (inactive); in the experiment on MCF7, 13.2 µM (inactive); in the experiment with SK-MEL-2, 10.4 µM (inactive); in the experiment on MOLT-4, 3.96 µM (inactive).
As for `CC(=O)O[C@H]1CC[C@@]2(C)C(=CC[C@@H]3[C@@H]2CC[C@]2(C)c4nc(N)c(C#N)cc4C[C@@H]32)C1`, the GI50 with CAKI-1 was > 100 µM (inactive); with SW-620, 43.4 µM (inactive); in the experiment with SK-MEL-5, 12.8 µM (inactive); in the experiment on UACC-62 it was 40.6 µM (inactive); in the experiment with SN12C, 36.9 µM (inactive); in the experiment with HOP-92, 33 µM (inactive). Further, the GI50 is 19.9 µM (inactive) in the experiment with OVCAR-4; 24.9 µM (inactive) in the experiment on Hs-578T; 35 µM (inactive) in the experiment on NCI-H23; 18.2 µM (inactive) in the experiment on HCT-116; 12.6 µM (inactive) in the experiment on NCI-H522; > 55.3 µM (inactive) in the experiment with HCC 2998. In addition, the GI50 in the experiment with 786-0 is 28.7 µM (inactive); in the experiment with EKVX, 27.9 µM (inactive); in the experiment on HL-60, 12.2 µM (inactive); in the experiment on MCF7 it was 33.6 µM (inactive); in the experiment on SK-MEL-2, 35.9 µM (inactive); in the experiment with MOLT-4 it was 11.7 µM (inactive).
Regarding `O=c1[nH]c(=O)n(C2CC(O)C(CO)O2)cc1OCC1CCCCC1` (centres undefined), the GI50 in the experiment with CAKI-1, with SK-MEL-5, in the experiment on UACC-62, in the experiment with SN12C, with OVCAR-4 and with Hs-578T was > 100 µM (inactive) throughout. The GI50 with NCI-H23, with HCT-116, in the experiment on NCI-H522, in the experiment on 786-0, in the experiment on EKVX and in the experiment on HL-60 was > 100 µM (inactive) each time. The GI50 in the experiment on NCI/ADR-RES, in the experiment with MCF7 and with MOLT-4 was > 100 µM (inactive) each time.
For the compound `CN(C)CN1CSC(=S)N(CN(C)C)C1`, the GI50 in the experiment on CAKI-1, in the experiment with SW-620, with SK-MEL-5, in the experiment with UACC-62, with SN12C and with HOP-92 was > 100 µM (inactive) in each case. For the same compound, the GI50 was > 100 µM (inactive) in the experiment on OVCAR-4; > 100 µM (inactive) with Hs-578T; > 100 µM (inactive) in the experiment on NCI-H23; > 100 µM (inactive) in the experiment on HCT-116; 42 µM (inactive) in the experiment on NCI-H522; > 100 µM (inactive) in the experiment with HCC 2998. Moreover, the GI50 was 43 µM (inactive) in the experiment on 786-0; > 100 µM (inactive) in the experiment on EKVX; > 100 µM (inactive) in the experiment on NCI/ADR-RES; 33.3 µM (inactive) in the experiment on SK-MEL-2; 26.7 µM (inactive) in the experiment on MOLT-4.
Turning to `Cn1c(=O)sc2cc(C(=S)N3CCCCC3)ccc21`, the GI50 was 46.9 µM (inactive) with CAKI-1; > 100 µM (inactive) in the experiment on SW-620; > 100 µM (inactive) in the experiment with SK-MEL-5; > 100 µM (inactive) in the experiment on UACC-62; > 100 µM (inactive) in the experiment on SN12C; 30.8 µM (inactive) in the experiment with Hs-578T. Moreover, the GI50 was > 100 µM (inactive) in the experiment with NCI-H23; 89.7 µM (inactive) with HCT-116; > 100 µM (inactive) in the experiment on 786-0; 16.1 µM (inactive) with EKVX; 17.7 µM (inactive) with HL-60; 29.6 µM (inactive) in the experiment with NCI/ADR-RES. Moreover, the GI50 with MCF7 was > 100 µM (inactive); in the experiment with SK-MEL-2, > 100 µM (inactive); with MOLT-4 it was 27.6 µM (inactive).
Take `O=C1c2cc(Cl)ccc2-n2cnnc2C2CSCN12` (centres undefined): the GI50 in the experiment on CAKI-1 is 4.54 µM (inactive); in the experiment with SW-620, > 100 µM (inactive); in the experiment on SK-MEL-5, > 100 µM (inactive); in the experiment with UACC-62, > 100 µM (inactive); in the experiment on SN12C, > 100 µM (inactive); with OVCAR-4, > 100 µM (inactive). In addition, the GI50 in the experiment with Hs-578T, in the experiment with HCT-116, with NCI-H522, with HCC 2998, in the experiment with 786-0 and in the experiment on EKVX was > 100 µM (inactive) each time. The GI50 with NCI/ADR-RES, in the experiment on MCF7, in the experiment on SK-MEL-2 and in the experiment with MOLT-4 was > 100 µM (inactive) in each case.
With `CCCCCC/C=C\CCCCCCCCCc1cccc(OC)c1O`, the GI50 in the experiment with CAKI-1, in the experiment with SW-620, in the experiment on SK-MEL-5, in the experiment on UACC-62, in the experiment on SN12C and with Hs-578T was > 100 µM (inactive) throughout. The GI50 with NCI-H23 was 86.9 µM (inactive); with HCT-116 it was 44.2 µM (inactive); in the experiment with NCI-H522, 47.1 µM (inactive); with 786-0, > 100 µM (inactive); in the experiment with EKVX it was > 100 µM (inactive); with HL-60 it was > 100 µM (inactive). The GI50 with NCI/ADR-RES is 41.2 µM (inactive); in the experiment on MCF7, 75.5 µM (inactive); in the experiment with SK-MEL-2, > 100 µM (inactive); with MOLT-4, > 100 µM (inactive).
